Data reported in US7074789B2, “Kinase inhibitors” (Amgen Inc., priority 1999, dated 2006).

Key:
Type in all cases: biochemical
[1] = target: T1, Lck (Homo sapiens, UniProt P06239); test: Kinase inhibition assay (33P transfer), Lck; settings: Table 3; read-out: Lck-1
T1 construct: Kinases are expressed as either kinase domains or full length constructs; made in house
In short: (§1)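 Filterless plate radiometric format: immobilized poly(Glu,Tyr) 4:1 or poly(Arg,Ser) 3:1, 33P-labelled ATP, tagged recombinant kinase (some with regulatory partners). Incorporated label counted after phosphoric acid wash.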

[2] = target: T2, Zap-70 (Homo sapiens, UniProt P43403); test: Kinase inhibition assay (33P transfer), Zap-70; settings: Table 3; read-out: Zap-1
T2 construct: Kinases are expressed as either kinase domains or full length constructs; made in house
T2 sequence (P43403 1-619): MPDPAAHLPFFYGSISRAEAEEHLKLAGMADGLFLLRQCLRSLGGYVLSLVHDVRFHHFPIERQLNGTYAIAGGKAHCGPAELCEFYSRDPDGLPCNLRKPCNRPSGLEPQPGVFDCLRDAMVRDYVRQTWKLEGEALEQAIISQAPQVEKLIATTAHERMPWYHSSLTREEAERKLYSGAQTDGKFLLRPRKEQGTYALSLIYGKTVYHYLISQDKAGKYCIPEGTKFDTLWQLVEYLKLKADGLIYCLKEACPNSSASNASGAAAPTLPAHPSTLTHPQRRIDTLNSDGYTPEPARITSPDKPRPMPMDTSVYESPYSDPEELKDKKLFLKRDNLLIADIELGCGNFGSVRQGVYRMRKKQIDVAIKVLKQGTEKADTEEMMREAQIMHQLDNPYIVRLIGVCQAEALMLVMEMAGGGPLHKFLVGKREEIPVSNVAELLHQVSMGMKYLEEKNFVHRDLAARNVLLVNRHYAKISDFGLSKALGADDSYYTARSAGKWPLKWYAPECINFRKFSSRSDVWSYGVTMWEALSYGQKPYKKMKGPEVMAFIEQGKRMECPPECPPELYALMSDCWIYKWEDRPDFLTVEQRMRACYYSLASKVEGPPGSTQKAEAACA
In short: as §1

[3] = target: T3, Itk (Homo sapiens, UniProt Q08881); test: Kinase inhibition assay (33P transfer), Itk; settings: Table 3; read-out: Itk-1
T3 construct: Kinases are expressed as either kinase domains or full length constructs; made in house
T3 sequence (Q08881 1-620): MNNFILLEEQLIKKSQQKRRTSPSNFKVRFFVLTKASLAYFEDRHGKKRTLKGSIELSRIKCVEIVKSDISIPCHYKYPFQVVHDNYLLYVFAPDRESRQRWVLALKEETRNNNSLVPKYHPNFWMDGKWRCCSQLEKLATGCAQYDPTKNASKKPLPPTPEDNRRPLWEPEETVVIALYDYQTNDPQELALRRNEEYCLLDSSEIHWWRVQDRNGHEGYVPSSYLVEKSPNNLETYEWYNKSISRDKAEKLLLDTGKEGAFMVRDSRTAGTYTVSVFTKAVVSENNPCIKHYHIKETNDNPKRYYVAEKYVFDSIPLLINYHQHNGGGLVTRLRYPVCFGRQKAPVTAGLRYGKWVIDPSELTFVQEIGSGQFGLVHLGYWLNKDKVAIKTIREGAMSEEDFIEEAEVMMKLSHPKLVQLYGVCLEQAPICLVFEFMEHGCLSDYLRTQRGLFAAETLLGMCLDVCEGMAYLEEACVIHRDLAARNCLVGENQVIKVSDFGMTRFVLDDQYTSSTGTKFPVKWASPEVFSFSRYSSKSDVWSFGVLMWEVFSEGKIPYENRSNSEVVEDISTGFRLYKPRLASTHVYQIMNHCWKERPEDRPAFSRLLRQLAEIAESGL
In short: (§2)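 Using immobilised substrate copolymers (poly(Glu,Tyr) 4:1; poly(Arg,Ser) 3:1) and [33P]ATP, purified fusion kinases were allowed to react; plates were then rinsed in 0.5% phosphoric acid and counted in a scintillation detector. Half-maximal inhibition of label transfer defines IC50.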

[4] = target: T4, EGFR (Homo sapiens, UniProt P00533); test: Kinase inhibition assay (33P transfer), EGFR; settings: Table 2, kinase inhibition class; read-out: EGFR-1
T4 construct: Kinases are expressed as either kinase domains or full length constructs; made in house
T4 sequence (P00533 25-1210, species assumed): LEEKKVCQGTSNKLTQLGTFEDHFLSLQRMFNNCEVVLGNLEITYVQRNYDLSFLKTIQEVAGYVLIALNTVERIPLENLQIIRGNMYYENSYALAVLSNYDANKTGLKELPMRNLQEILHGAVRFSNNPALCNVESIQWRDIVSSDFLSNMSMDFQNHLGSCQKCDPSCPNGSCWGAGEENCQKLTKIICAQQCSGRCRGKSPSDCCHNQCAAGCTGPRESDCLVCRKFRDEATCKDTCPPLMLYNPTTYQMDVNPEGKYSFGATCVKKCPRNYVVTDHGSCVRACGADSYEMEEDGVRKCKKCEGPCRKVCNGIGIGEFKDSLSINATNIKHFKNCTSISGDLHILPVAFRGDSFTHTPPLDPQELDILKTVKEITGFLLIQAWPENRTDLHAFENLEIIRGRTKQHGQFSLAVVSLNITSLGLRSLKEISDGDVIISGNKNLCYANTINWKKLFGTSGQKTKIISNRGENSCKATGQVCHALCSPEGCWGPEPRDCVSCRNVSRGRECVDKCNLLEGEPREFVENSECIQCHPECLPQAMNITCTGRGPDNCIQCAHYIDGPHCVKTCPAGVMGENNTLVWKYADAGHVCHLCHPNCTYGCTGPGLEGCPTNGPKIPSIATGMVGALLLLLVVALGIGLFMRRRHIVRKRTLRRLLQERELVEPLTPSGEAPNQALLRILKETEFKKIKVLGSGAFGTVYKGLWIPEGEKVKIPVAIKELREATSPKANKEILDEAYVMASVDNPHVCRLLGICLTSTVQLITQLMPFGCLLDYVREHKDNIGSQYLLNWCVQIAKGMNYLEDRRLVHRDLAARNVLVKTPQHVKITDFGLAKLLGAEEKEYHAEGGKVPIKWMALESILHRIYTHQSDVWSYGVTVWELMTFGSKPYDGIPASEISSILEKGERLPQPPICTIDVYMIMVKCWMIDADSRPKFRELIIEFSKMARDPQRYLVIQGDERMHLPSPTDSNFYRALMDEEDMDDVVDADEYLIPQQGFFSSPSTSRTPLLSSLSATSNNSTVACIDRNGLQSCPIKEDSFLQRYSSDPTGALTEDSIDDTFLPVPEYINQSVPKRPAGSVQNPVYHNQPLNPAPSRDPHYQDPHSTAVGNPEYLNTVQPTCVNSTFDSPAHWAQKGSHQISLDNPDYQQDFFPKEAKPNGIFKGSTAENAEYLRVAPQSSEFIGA
In short: as §2

[5] = target: T5, Kdr (Homo sapiens, UniProt P35968); test: Kinase inhibition assay (33P transfer), Kdr; settings: Table 3; read-out: KDR-1
T5 construct: Kinases are expressed as either kinase domains or full length constructs; made in house
T5 sequence (P35968 20-1356, species assumed): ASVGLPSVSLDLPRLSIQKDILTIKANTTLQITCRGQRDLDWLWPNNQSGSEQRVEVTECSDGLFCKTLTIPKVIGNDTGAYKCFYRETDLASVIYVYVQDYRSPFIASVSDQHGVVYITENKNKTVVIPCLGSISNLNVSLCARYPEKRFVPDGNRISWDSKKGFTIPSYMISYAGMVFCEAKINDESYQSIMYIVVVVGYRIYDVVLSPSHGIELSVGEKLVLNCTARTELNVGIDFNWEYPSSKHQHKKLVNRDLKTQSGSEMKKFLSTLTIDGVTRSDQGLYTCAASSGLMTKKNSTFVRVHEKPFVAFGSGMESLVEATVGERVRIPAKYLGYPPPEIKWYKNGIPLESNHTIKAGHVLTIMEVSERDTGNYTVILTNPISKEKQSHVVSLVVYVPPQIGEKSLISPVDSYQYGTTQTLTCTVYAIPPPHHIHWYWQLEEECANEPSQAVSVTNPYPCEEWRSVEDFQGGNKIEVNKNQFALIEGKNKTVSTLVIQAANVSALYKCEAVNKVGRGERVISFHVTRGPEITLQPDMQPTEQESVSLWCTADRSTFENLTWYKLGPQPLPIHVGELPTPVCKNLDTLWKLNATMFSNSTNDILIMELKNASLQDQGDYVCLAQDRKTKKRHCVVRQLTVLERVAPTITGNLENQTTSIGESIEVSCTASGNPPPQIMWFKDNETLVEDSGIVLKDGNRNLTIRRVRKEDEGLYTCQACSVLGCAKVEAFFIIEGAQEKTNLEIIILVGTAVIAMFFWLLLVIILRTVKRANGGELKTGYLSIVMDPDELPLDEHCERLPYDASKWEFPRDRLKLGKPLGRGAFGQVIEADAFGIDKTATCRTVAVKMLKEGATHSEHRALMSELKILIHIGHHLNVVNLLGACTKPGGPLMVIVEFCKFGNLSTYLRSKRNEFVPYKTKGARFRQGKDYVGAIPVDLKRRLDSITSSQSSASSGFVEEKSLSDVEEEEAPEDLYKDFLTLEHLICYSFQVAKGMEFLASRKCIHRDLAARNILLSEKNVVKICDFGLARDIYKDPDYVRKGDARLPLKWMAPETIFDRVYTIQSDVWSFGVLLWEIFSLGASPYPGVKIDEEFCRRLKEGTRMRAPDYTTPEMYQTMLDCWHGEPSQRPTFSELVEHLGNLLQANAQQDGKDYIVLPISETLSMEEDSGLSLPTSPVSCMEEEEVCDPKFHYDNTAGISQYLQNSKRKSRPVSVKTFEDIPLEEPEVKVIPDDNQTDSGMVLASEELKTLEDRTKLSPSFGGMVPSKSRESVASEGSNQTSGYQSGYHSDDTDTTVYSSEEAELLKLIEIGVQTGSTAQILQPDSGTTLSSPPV
In short: as §1

[6] = target: T6, c-Met (Homo sapiens, UniProt P08581); test: Kinase inhibition assay (33P transfer), c-Met; settings: Table 2, kinase inhibition class; read-out: Met-1
T6 construct: Kinases are expressed as either kinase domains or full length constructs; made in house
In short: as §2

[7] = target: T7, AKT (Homo sapiens, UniProt Q9Y243); test: Kinase inhibition assay (33P transfer), AKT; settings: Table 2, kinase inhibition class; read-out: AKT3-1
T7 construct: Kinases are expressed as either kinase domains or full length constructs; made in house
T7 sequence (Q9Y243 whole entry, the tested form may be a part): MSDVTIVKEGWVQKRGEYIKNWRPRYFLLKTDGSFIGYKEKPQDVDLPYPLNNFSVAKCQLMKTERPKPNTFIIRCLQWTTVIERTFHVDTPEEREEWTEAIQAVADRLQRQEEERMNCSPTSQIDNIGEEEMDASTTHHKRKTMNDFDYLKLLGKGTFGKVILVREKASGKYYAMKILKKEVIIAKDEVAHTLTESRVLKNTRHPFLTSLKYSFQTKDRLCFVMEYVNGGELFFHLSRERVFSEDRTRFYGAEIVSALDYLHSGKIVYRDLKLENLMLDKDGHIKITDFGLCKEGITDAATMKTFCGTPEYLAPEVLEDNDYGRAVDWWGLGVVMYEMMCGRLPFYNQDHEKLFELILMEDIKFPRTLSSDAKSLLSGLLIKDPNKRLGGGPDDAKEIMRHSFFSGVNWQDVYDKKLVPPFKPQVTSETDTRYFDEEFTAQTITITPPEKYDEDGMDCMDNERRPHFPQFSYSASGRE
In short: as §1

[8] = target: T8, IGFR-1 (Homo sapiens, UniProt P08069); test: Kinase inhibition assay (33P transfer), IGFR-1; settings: Table 2, kinase inhibition class
T8 construct: Kinases are expressed as either kinase domains or full length constructs; made in house
T8 sequence (P08069 31-1367): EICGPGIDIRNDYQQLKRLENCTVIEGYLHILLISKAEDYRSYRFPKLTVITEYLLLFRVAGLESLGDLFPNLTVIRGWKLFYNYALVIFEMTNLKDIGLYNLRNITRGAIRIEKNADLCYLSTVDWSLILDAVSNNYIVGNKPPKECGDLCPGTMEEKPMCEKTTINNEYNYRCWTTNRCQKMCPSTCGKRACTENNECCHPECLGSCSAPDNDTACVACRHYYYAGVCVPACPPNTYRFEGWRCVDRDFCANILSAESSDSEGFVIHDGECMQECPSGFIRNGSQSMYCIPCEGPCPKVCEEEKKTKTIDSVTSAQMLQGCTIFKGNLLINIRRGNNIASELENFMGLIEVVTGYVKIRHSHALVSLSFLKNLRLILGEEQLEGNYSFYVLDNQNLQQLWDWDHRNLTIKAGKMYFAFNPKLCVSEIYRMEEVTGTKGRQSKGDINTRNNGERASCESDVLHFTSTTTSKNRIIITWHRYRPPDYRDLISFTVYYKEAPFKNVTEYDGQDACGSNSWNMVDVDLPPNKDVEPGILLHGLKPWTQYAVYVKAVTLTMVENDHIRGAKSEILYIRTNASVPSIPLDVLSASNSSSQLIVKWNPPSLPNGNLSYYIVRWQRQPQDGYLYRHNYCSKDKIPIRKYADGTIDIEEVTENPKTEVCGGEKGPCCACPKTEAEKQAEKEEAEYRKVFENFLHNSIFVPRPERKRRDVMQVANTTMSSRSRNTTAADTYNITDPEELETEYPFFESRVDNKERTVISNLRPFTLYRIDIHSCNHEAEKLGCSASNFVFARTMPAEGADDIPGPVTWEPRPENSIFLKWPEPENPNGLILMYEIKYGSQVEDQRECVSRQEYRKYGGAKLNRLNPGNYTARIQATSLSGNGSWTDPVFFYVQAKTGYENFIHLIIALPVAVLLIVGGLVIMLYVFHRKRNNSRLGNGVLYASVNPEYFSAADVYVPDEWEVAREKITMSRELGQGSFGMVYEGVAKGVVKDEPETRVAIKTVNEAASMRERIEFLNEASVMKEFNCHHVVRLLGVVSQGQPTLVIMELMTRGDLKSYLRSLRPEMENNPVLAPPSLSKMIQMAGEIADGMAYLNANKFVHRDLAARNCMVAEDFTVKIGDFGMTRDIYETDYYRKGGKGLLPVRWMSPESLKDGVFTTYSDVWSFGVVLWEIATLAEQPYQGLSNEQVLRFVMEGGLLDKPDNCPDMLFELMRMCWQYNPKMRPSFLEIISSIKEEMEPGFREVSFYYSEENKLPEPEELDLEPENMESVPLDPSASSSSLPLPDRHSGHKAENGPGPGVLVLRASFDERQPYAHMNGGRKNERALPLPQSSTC

[9] = target: T9, EPHB4 (Homo sapiens, UniProt P54760); test: Kinase inhibition assay (33P transfer), EPHB4; settings: read-out: EPHB4-1
T9 construct: Kinases are expressed as either kinase domains or full length constructs; made in house
T9 sequence (P54760 16-987): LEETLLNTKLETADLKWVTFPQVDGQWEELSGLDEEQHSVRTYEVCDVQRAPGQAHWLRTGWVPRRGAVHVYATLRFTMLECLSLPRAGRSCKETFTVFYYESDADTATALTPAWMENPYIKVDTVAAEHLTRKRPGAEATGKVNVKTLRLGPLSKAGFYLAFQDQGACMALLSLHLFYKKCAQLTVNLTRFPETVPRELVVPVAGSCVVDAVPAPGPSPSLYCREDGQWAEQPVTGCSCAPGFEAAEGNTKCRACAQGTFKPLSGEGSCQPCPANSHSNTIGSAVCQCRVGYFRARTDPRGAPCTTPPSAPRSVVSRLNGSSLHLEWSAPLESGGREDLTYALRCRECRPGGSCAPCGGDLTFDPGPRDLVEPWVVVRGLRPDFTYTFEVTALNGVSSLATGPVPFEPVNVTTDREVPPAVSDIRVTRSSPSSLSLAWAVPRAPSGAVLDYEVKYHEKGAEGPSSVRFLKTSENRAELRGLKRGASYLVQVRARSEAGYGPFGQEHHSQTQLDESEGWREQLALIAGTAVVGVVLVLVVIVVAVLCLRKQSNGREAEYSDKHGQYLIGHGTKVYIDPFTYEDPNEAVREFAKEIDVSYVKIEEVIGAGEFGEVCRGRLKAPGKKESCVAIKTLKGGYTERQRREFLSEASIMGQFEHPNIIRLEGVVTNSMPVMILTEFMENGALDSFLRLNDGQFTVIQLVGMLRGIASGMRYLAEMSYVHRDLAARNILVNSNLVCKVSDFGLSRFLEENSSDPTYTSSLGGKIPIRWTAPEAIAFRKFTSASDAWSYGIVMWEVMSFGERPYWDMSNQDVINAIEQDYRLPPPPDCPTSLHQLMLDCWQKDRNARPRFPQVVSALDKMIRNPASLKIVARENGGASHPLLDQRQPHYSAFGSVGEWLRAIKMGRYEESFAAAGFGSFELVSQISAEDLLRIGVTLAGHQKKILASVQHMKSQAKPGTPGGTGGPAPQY

T1 sequence (P06239 whole entry, species assumed, the tested form may be a part): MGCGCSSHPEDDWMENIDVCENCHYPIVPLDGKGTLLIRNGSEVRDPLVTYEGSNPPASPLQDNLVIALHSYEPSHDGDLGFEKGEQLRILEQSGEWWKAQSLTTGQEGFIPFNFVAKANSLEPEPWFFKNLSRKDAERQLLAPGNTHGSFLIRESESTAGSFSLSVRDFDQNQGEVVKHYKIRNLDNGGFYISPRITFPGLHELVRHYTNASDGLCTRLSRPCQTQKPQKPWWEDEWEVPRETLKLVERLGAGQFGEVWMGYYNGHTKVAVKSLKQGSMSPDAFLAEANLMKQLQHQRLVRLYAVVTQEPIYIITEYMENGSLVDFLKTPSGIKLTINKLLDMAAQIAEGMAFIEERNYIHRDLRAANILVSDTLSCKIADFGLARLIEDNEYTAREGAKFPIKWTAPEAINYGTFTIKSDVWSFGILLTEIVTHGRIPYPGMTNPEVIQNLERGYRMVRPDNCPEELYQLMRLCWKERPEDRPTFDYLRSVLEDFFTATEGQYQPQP

Compound	IC50 [1] [µM]	IC50 [2] [µM]	IC50 [3] [µM]	IC50 [4] [µM]	IC50 [5] [µM]	IC50 [6] [µM]	IC50 [7] [µM]	IC50 [8] [µM]	IC50 [9] [µM]
COc1cc(C)c(Nc2ncnc(Nc3cc(-c4ccco4)n[nH]3)n2)cc1OC [Compound 338]	1.02 to 6.1	> 11.4	> 11.4	1.02 to 6.1	1.02 to 6.1	1.02 to 6.1	> 11.4	< 1.02	6.1 to 8.9
COc1cc(Nc2ncnc(-c3ccc(C)cc3)n2)cc(OC)c1OC [Compound 221]	> 12.8	> 12.8	> 12.8	> 12.8	1.14 to 6.81	> 12.8	> 12.8	< 1.14	1.14 to 6.81

The remaining lines, values ahead:

IC50 [1] [µM]	IC50 [2] [µM]	IC50 [3] [µM]	IC50 [4] [µM]	IC50 [5] [µM]	IC50 [6] [µM]	IC50 [7] [µM]	IC50 [8] [µM]	IC50 [9] [µM]	Compound
> 12.7	> 12.7	> 12.7	> 12.7	> 12.7	> 12.7	> 12.7	> 12.7	> 12.7	COc1cc(Nc2ncnc(Nc3ccccn3)n2)cc(OC)c1OC [Compound 40]
> 12.7	> 12.7	> 12.7	> 12.7	> 12.7	> 12.7	> 12.7	> 12.7	> 12.7	COc1cc(Nc2ncnc(Nc3ccncc3)n2)cc(OC)c1OC [Compound 39]
7.08 to 9.1	> 9.1	> 9.1	> 9.1	4.85 to 7.08	7.08 to 9.1	> 9.1	> 9.1	0.809 to 4.85	COc1cc(Nc2ncnc(-n3c(Nc4ccc(C#N)cc4)nc4ccccc43)n2)cc(OC)c1OC [Compound 381]
